Measured values as given in patent US11090304B2 (Amgen Inc., priority 2018, dated 2021).
Read-outs that look alike come from different tables or passages of the source.

Tests used:
[1] = biological target: GDP-bound KRAS protein (aa 1-169), containing both G12C and C118A amino acid substitutions (Homo sapiens, UniProt P01116, C118A/G12C); test: Coupled nucleotide exchange assay (SOS-mediated, AlphaScreen); assay type: biochemical; details: 5 min compound pre-incubation; for IC50: read-out: Coupled exchange IC50 (5 min)
[2] = tested on: Phosphorylation of ERK1/2 in MIA PaCa-2 cells; test: Phospho-ERK1/2 MSD assay in MIA PaCa-2 cells; assay type: cell-based; details: read-out: p-ERK IC50 (2 h; MIA PaCa-2), 2 h compound treatment
Procedure, shortened: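 MIA PaCa-2 or A549 cells were treated with a compound dose-response titration for 2 or 4 h at 37 °C, then stimulated with 10 ng/mL EGF for 10 min. Phospho-ERK1/2 in RIPA lysates was measured by MSD whole-cell lysate immunoassay, and IC50 came from a 4-parameter logistic fit.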

Compound	Coupled exchange IC50 (5 min) [1]	IC50 ([2]; Homo sapiens, MIA PaCa-2, 2 h) [µM]	IC50 [2] [µM]	IC50 [1] [µM]	IC50 ([2]; Homo sapiens) [µM]
C=CC(=O)N1CCN(c2nc(=O)n(-c3c(C(C)C)ncnc3C(C)C)c3nc(-c4ccccc4F)c(F)cc23)[C@@H](C)C1 [Example 57-5, 1-(4,6-di(2-propanyl)-5-pyrimidinyl)-6-fluoro-7-(2-fluorophenyl)-4-((2S)-2-methyl-4-(2-propenoyl)-1-piperazinyl)pyrido[2,3-d]pyrimidin-2(1H)-one]	0.221 | nda μM	0.107	–	–	–
C=CC(=O)N1CCN(c2nc(=O)n(-c3c(C)cccc3C3CC3)c3nc(-c4c(O)cccc4F)c(Cl)cc23)[C@@H](C)C1 (single isomer, unassigned) [Example 55-15-2]	0.061 | nda μM	–	0.076	–	–
C=CC(=O)N1CCN(c2nc(=O)n(-c3c(C(C)C)nc(C)nc3C(C)C)c3nc(-c4ccccc4F)c(Cl)cc23)[C@@H](C)C1 [Example 55-5, 6-chloro-7-(2-fluorophenyl)-1-(2-methyl-4,6-di(2-propanyl)-5-pyrimidinyl)-4-((2S)-2-methyl-4-(2-propenoyl)-1-piperazinyl)pyrido[2,3-d]pyrimidin-2(1H)-one]	0.045 | nda μM	0.031	–	–	–
C=CC(=O)N1CCN(c2nc(=O)n(-c3c(C)cc[n+]([O-])c3C(C)C)c3nc(-c4ccccc4F)c(Cl)cc23)C(C)C1 (atropisomer, axis not shown; (M)) [Example 151, (M)-6-Chloro-7-(2-fluorophenyl)-1-(4-methyl-1-oxido-2-(2-propanyl)-3-pyridinyl)-4-((2S)-2-methyl-4-(2-propenoyl)-1-piperazinyl)pyrido[2,3-d]pyrimidin-2(1H)-one]	0.065 | nda μM	0.237	–	–	–
C=CC(=O)N1CCN(c2nc(=O)n(-c3c(C)ccnc3C(C)C)c3nc(-c4cc(N)ccc4F)c(F)cc23)[C@@H](C)C1 [Example 58-6]	0.623 | nda μM	0.842	–	–	–
C=CC(=O)N1CCN(c2nc(=O)n(-c3nccnc3C(C)C)c3nc(-c4ccccc4F)c(F)cc23)[C@@H](C)C1 [Example 57-2, 6-fluoro-7-(2-fluorophenyl)-4-((2S)-2-methyl-4-(2-propenoyl)-1-piperazinyl)-1-(3-(2-propanyl)-2-pyrazinyl)pyrido[2,3-d]pyrimidin-2(1H)-one]	0.74 | nda μM	0.3	–	–	–
C=CC(=O)N1CCN(c2nc(=O)n(-c3c(C)cccc3C(C)C)c3nc(-c4cccc(F)c4O)c(Cl)cc23)[C@@H](C)C1 (single isomer, unassigned) [Example 64-3]	0.189 | nda μM	0.219	–	–	–
C=CC(=O)N1CCN(c2nc(=O)n(-c3c(F)cccc3C(C)C)c3nc(-c4c(O)cccc4F)c(F)cc23)[C@@H](C)C1 (single isomer, unassigned) [Example 59-2-1]	0.112 | nda μM	0.137	–	–	–
C=CC(=O)N1CCN(c2nc(=O)n(-c3c(CN(C)C)ccnc3C(C)C)c3nc(-c4ccccc4F)c(Cl)cc23)[C@@H](C)C1 (atropisomer, axis not shown; (M)) [Example 152, (M)-6-Chloro-1-(4-((dimethylamino)methyl)-2-(2-propanyl)-3-pyridinyl)-7-(2-fluorophenyl)-4-((2S)-2-methyl-4-(2-propenoyl)-1-piperazinyl)pyrido[2,3-d]pyrimidin-2(1H1)-one]	–	–	0.021	0.084	–
C=CC(=O)N1CCN(c2nc(=O)n(-c3c(C)ncnc3C(C)C)c3nc(-c4cc(F)ccc4F)c(Cl)cc23)[C@@H](C)C1 [Example 55-39, 6-chloro-7-(2,5-difluorophenyl)-1-(4-methyl-6-(2-propanyl)-5-pyrimidinyl)-4-((2S)-2-methyl-4-(2-propenoyl)-1-piperazinyl)pyrido[2,3-d]pyrimidin-2(1H)-one]	0.292 | nda μM	0.271	–	–	–
C=CC(=O)N1CCN(c2nc(=O)n(-c3c(C)cccc3C(C)C)c3nc(-c4c(O)cccc4F)c(F)cc23)C[C@H]1C (single isomer, unassigned) [Example 63-2]	0.311 | nda μM	0.609	–	–	–
C=CC(=O)N1C[C@H](C)N(c2nc(=O)n(-c3c(C)cccc3C(C)C)c3nc(-c4c(O)cccc4F)c(F)cc23)[C@@H](C)C1 (single isomer, unassigned) [Example 63-3]	0.059 | nda μM	0.108	–	–	–
6-Chloro-7-(2-fluoro-6-hydroxyphenyl)-4-((2S)-2-methyl-4-(2-propenoyl)-1-piperazinyl)-1-(2-(methylsulfonyl)phenyl)pyrido[2,3-d]pyrimidin-2(1H)-one [Example 54-1]	–	–	0.109	0.225	–
C=CC(=O)N1CCN(c2nc(=O)n(-c3c(C)ccnc3C(C)C)c3nc(-c4cc(C#N)ccc4F)c(Cl)cc23)[C@@H](C)C1 (atropisomer, axis not shown; (M)) [Example 73-5, (M)-3-(6-chloro-1-(4-methyl-2-(2-propanyl)-3-pyridinyl)-4-((2S)-2-methyl-4-(2-propenoyl)-1-piperazinyl)-2-oxo-1,2-dihydropyrido[2,3-d]pyrimidin-7-yl)-4-fluorobenzonitrile]	0.184 | nda μM	0.228	–	–	–
C=CC(=O)N1CCN(c2nc(=O)n(-c3c(C(C)C)nc[nH]c3=O)c3nc(-c4ccccc4F)c(Cl)cc23)[C@@H](C)C1 [Example 54-108, 6-chloro-7-(2-fluorophenyl)-4-((2S)-2-methyl-4-(2-propenoyl)-1-piperazinyl)-1-(6-oxo-4-(2-propanyl)-1,6-dihydro-5-pyrimidinyl) pyrido[2,3-d]pyrimidin-2(1H)-one]	0.434 | nda μM	3.77	–	–	–
C=CC(=O)N1CCN(c2nc(=O)n(-c3c(C4CC4)ncnc3C3CC3)c3nc(-c4c(O)cccc4F)c(Cl)cc23)[C@@H](C)C1 [Example 60-29, 6-chloro-1-(4,6-dicyclopropyl-5-pyrimidinyl)-7-(2-fluoro-6-hydroxyphenyl)-4-((2S)-2-methyl-4-(2-propenoyl)-1-piperazinyl)pyrido[2,3-d]pyrimidin-2(1H)-one]	–	–	–	0.034	0.036
C=CC(=O)N1CCN(c2nc(=O)n(-c3c(C)ccnc3C(C)C)c3nc(-c4c(N)cccc4F)c(F)cc23)[C@@H](C)C1 (atropisomer, axis not shown; (M)) [Example 72-11, (M)-7-(2-amino-6-fluorophenyl)-6-fluoro-1-(4-methyl-2-(2-propanyl)-3-pyridinyl)-4-((2S)-2-methyl-4-(2-propenoyl)-1-piperazinyl)pyrido[2,3-d]pyrimidin-2(1H)-one]	0.039 | nda μM	0.044	–	–	–
C=CC(=O)N1CCN(c2nc(=O)n(-c3ccccc3C(C)C)c3nc(-c4cc(O)ccc4F)c(Cl)cc23)[C@@H](C)C1 (single isomer, unassigned) [Example 54-88-1]	0.077 | nda μM	0.084	–	–	–
C=CC(=O)N1CCN(c2nc(=O)n(-c3c(C#N)cccc3C(C)C)c3nc(-c4ccccc4F)c(Cl)cc23)[C@@H](C)C1 (single isomer, unassigned) [Example 60-20-2]	0.024 | nda μM	0.033	–	–	–
C=CC(=O)N1CCN(c2nc(=O)n(-c3c(C(F)(F)F)ccnc3C(C)C)c3nc(-c4c(O)cccc4F)c(F)cc23)[C@@H](C)C1 (single isomer, unassigned) [Example 58-3-1]	0.097 | nda μM	–	0.144	–	–
C=CC(=O)N1C[C@H](C)N(c2nc(=O)n(-c3c(C)ccnc3C(C)C)c3nc(-c4c(N)cccc4F)c(F)cc23)[C@@H](C)C1 (atropisomer, axis not shown; (M)) [Example 72-13, (M)-7-(2-amino-6-fluorophenyl)-4-((2S,6S)-2,6-dimethyl-4-(2-propenoyl)-1-piperazinyl)-6-fluoro-1-(4-methyl-2-(2-propanyl)-3-pyridinyl)pyrido[2,3-d]pyrimidin-2(1H)-one]	0.021 | nda μM	0.012	–	–	–
C=CC(=O)N1CCN(c2nc(=O)n(-c3ncccc3C(C)C)c3nc(-c4ccccc4F)c(Cl)cc23)[C@@H](C)C1 [Example 60-28, 6-chloro-7-(2-fluorophenyl)-4-((2S)-2-methyl-4-(2-propenoyl)-1-piperazinyl)-1-(3-(2-propanyl)-2-pyridinyl)pyrido[2,3-d]pyrimidin-2(1H)-one]	0.101 | nda μM	0.045	–	–	–
C=CC(=O)N1CCN(c2nc(=O)n(-c3c(C)ccnc3C(C)C)c3nc(-c4cc(C)ccc4F)c(Cl)cc23)[C@@H](C)C1 (atropisomer, axis not shown; (M)) [Example 73-3, (M)-6-chloro-7-(2-fluoro-5-methylphenyl)-1-(4-methyl-2-(2-propanyl)-3-pyridinyl)-4-((2S)-2-methyl-4-(2-propenoyl)-1-piperazinyl)pyrido[2,3-d]pyrimidin-2(1H)-one]	0.031 | nda μM	0.04	–	–	–
C=CC(=O)N1CCN(c2nc(=O)n(-c3c(OC)cccc3C(C)C)c3nc(-c4c(O)cccc4F)c(Cl)cc23)[C@@H](C)C1 [Example 54-73, 6-chloro-7-(2-fluoro-6-hydroxy-phenyl)-1-(2-methoxy-6-(2-propanyl)phenyl)-4-((2S)-2-methyl-4-(2-propenoyl)-1-piperazinyl) pyrido[2,3-d]pyrimidin-2(1H)-one]	0.062 | nda μM	0.064	–	–	–
C=CC(=O)N1CCN(c2nc(=O)n(-c3ccccc3C3(C)CC3)c3nc(-c4c(O)cccc4F)c(Cl)cc23)[C@@H](C)C1 (single isomer, unassigned) [Example 54-97-1]	0.971 | nda μM	–	1.02	–	–
